Like-named read-outs stand apart in the source and are kept apart here.
Key:
Assay type in all cases: biochemical
FAP = FAP (Homo sapiens (Human), UniProt Q12884); experiment: FAP inhibition assay (recombinant enzyme, Z-Gly-Pro-AMC substrate); details: Table 3; for Ki: read-out: FAP Ki
Experimental: (§1) PSMA binding affinities of the compounds were determined using a competitive inhibition assay as previously reported. […] FAP, prolyl endopeptidase (PREP), and […] (DPPIV) inhibition assays: Recombinant enzymes (FAP, PREP, DPPIV) were purchased from R&D Systems (Minneapolis, MN). […] Z-Gly-Pro-AMC was used as a substrate for FAP and PREP. H-Gly-Pro-AMC was used as a substrate for DPPIV. The recombinant enzyme (0.4 μg/mL) was incubated with varying amounts of the test articles in the presence of the designated substrate (80 μM) for 10 min at room temperature. Fluorescence intensity was measured with 380 nm excitation and 460 nm emission using the Cytation 5 Cell Imaging Multi-Mode Reader (BioTek, Winooski, VT). IC50 and Ki values were obtained using a sigmoidal dose-response function.

PREP = PREP (Homo sapiens (Human), UniProt P48147); experiment: PREP inhibition assay (recombinant enzyme, Z-Gly-Pro-AMC substrate); details: Table 3
Sequence of PREP (P48147 whole entry): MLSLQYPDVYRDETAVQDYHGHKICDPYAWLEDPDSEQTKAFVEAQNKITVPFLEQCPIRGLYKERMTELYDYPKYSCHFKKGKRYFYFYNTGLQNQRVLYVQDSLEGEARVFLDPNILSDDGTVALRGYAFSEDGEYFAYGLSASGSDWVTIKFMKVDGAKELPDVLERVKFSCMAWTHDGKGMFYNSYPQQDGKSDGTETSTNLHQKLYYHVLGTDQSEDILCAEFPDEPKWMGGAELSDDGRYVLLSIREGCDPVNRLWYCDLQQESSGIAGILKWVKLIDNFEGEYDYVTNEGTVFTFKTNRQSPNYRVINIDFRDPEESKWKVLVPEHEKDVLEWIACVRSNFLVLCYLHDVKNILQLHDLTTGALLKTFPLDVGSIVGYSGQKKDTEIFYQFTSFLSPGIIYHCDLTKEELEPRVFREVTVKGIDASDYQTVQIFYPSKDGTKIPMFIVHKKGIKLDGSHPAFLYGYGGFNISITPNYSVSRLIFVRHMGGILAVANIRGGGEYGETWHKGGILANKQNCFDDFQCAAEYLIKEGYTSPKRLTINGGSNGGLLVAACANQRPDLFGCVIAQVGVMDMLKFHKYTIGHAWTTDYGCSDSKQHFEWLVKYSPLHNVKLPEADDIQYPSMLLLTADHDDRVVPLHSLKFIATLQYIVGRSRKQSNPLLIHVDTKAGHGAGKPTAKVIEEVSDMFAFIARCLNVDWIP
Experimental: as §1

DPPIV = DPPIV (Homo sapiens (Human), UniProt P27487); experiment: DPPIV inhibition assay (recombinant enzyme, H-Gly-Pro-AMC substrate)
Sequence of DPPIV (P27487 whole entry): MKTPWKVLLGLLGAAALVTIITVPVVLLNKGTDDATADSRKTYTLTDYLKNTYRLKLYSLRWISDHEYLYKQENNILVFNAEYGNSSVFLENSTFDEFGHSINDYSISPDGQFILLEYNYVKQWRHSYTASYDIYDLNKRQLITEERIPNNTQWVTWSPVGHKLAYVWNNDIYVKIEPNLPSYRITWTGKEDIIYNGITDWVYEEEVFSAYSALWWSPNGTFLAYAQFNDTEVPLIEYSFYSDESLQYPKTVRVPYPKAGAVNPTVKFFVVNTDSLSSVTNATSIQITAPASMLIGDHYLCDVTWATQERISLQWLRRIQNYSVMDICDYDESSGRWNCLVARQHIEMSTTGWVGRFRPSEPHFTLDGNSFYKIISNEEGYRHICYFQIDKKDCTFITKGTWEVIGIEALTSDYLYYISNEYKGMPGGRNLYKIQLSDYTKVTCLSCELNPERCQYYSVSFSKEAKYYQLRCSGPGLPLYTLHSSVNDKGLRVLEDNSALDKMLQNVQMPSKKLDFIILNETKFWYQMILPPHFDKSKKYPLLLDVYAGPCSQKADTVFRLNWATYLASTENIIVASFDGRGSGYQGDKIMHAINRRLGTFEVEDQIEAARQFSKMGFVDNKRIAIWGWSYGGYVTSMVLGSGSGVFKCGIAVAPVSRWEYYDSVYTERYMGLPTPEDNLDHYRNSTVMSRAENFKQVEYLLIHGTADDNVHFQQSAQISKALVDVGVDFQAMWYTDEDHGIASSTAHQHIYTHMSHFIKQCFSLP
Experimental: as §1

Sequence of FAP (Q12884 whole entry): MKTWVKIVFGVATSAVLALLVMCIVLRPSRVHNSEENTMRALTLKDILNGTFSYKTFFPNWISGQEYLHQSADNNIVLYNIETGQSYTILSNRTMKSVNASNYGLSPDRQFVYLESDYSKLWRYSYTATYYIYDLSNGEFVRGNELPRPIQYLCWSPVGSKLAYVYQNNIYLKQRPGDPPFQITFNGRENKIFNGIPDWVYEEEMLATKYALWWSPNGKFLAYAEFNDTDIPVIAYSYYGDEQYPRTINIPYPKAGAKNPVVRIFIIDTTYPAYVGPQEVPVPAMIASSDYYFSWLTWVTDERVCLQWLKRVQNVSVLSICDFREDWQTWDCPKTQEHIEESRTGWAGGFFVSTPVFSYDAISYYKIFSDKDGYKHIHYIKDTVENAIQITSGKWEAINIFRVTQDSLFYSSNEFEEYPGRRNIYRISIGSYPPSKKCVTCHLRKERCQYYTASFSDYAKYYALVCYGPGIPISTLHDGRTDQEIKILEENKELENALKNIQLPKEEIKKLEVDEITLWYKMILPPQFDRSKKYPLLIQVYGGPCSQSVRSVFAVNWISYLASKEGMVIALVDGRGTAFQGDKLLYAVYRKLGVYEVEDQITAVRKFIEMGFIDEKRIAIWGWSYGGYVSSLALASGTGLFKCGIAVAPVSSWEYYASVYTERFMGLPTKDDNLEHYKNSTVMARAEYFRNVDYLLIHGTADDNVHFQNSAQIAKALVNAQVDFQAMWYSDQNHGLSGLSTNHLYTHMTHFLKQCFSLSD

Compound | IC50 (FAP) [µM] | Ki (FAP) [nM] | IC50 (PREP) [µM] | IC50 (DPPIV; Table 3, read-out: DPPIV IC50) [µM] | IC50 (DPPIV) [µM]
N#C[C@@H]1CCCN1C(=O)CNC(=O)c1ccnc2cccc(F)c12 [JHU1219438] | 0.000912 | 0.182 | 0.0958 | > 20 | –
N#C[C@@H]1CC(F)(F)CN1C(=O)CNC(=O)c1ccnc2ccc(F)cc12 [JHU1220466] | 0.00031 | 0.062 | 0.047 | 3.5 | –
N#C[C@@H]1CCCN1C(=O)CNC(=O)c1ccnc2ccc(OCCF)cc12 [JHU1220470] | 0.000343 | 0.0686 | 1.41 | – | > 20
N#C[C@@H]1CCCN1C(=O)CNC(=O)c1ccnc2c(F)cccc12 [JHU1220502] | 0.00504 | 1.01 | 0.0845 | > 20 | –
N#C[C@@H]1CCCN1C(=O)CNC(=O)c1ccnc2ccc(OCCCN(Cc3ccc(F)nc3)C(=O)CN3CCN(CC(=O)O)CCN(CC(=O)O)CCN(CC(=O)O)CC3)cc12 [JHU1221709] | 0.00209 | 0.42 | 21.9 | 12.6 | –
N#C[C@@H]1CCCN1C(=O)CNC(=O)c1ccnc2ccc(OCCCNC(=O)[C@@H](CC(=O)O)NC(=O)[C@@H](CC(=O)O)NC(=O)c3ccc(F)nc3)cc12 [JHU1221785] | 0.00131 | 0.26 | 86.6 | 17.7 | –

More lines, in order of falling IC50 (FAP), values ahead:

IC50 (FAP) [µM] | Ki (FAP) [nM] | IC50 (PREP) [µM] | IC50 (DPPIV; Table 3, read-out: DPPIV IC50) [µM] | Compound | IC50 (DPPIV) [µM]
0.223 | 44.6 | 0.688 | > 20 | N#C[C@@H]1CCCN1C(=O)CNC(=O)c1c(F)cnc2ccccc12 [JHU1220503] | –
0.00216 | 0.433 | 0.522 | > 20 | N#C[C@@H]1CCCN1C(=O)CNC(=O)c1ccnc2cc(F)ccc12 [JHU1220501] | –
0.00141 | 0.28 | > 2000 | 836 | N#C[C@@H]1CCCN1C(=O)CNC(=O)c1ccnc2ccc(OCCCN(Cc3ccc(I)cc3)C(=O)CN3CCN(CC(=O)O)CCN(CC(=O)O)CCN(CC(=O)O)CC3)cc12 [JHU1220627] | –
0.00119 | 0.24 | 6.91 | 7.91 | N#C[C@@H]1CCCN1C(=O)CNC(=O)c1ccnc2ccc(OCCCNC(=O)[C@@H](CC(=O)O)NC(=O)[C@@H](CC(=O)O)NC(=O)c3cccc(F)n3)cc12 [JHU1221708] | –
0.000734 | 0.147 | 0.0115 | 2.53 | N#C[C@@H]1C[C@H](F)CN1C(=O)CNC(=O)c1ccnc2ccc(F)cc12 [JHU1220471] | –

— patent US20240382629A1, “HETEROBIVALENT AND HOMOBIVALENT AGENTS TARGETING FIBROBLAST ACTIVATION PROTEIN ALPHA AND/OR PROSTATE-SPECIFIC MEMBRANE ANTIGEN” (The Johns Hopkins University, priority 2021, published 2024)
